Results as given in patent US4971993A, “Dipeptide derivatives and antihypertensive drugs containing them” (Ajinomoto Co., Inc., priority 1985, dated 1990).
Peptide text beside a SMILES is read from it. * marks the point of attachment. Mts = Cc1cc(C)c(S(=O)(=O)*)c(C)c1; Tos = Cc1ccc(S(=O)(=O)*)cc1

tested on: spontaneously hypertensive rats; assay: Antihypertensive activity: systolic blood pressure measured indirectly on conscious SHR after a single oral dose; type: in vivo; settings: male, 0.05 mmole/kg aqueous solution, once force-fed into the stomach
Experimental: The antihypertensive activity of the peptide derivatives as prepared above was determined.
As subject animals there were used 5 SHR which had been trained enough and been confirmed to be hypertensive spontaneously hypertensive rats (male, body weight of 400-440 g),per sample
As an instrument for measuring the blood pressure there was used Programmed Electro-Sphygmomanometer PE-300 (Narco Co., U.S.A.), and the blood pressure was indirectly measured on conscious rats.
An aqueous solution of a sample (0.05 mmole/kg) was once force-fed into the stomach by means of a peroal probe. As a control, deionized water was fed to the same animals as above.

Molecule | Hours after Administration (time of lowest systolic blood pressure) | Systolic Blood Pressure, Lowest value after Administration
2-benzenesulfonylamino isobutyryl-L-proline sodium salt [Example 21] | 7 h | 193 mmHg
C[C@H](NS(=O)(=O)c1ccccc1)C(=O)N1CCC[C@H]1C(=O)O [Example 1, N-benzenesulfonyl-L-alanyl-L-proline] | 8 h | 185 mmHg
Cc1cc(C)c(S(=O)(=O)N[C@@H](C)C(=O)N2CCC[C@H]2C(=O)O)c(C)c1 [Example 2, N-mesitylenesulfonyl-L-alanyl-L-proline] (Mts-Ala-Pro-OH) | 7 h | 191 mmHg
Cc1ccc(S(=O)(=O)N[C@@H](C)C(=O)N2CCC[C@H]2C(=O)O)cc1 [Example 3, N-p-toluenesulfonyl-L-alanyl-L-proline] (Tos-Ala-Pro-OH) | 7 h | 194 mmHg
C[C@H](NS(=O)(=O)c1cccc2ccccc12)C(=O)N1CCC[C@H]1C(=O)O [Example 4, N-α-naphthalenesulfonyl-L-alanyl-L-proline] | 7 h | 185 mmHg
C[C@H](NS(=O)(=O)c1ccccc1[N+](=O)[O-])C(=O)N1CCC[C@H]1C(=O)O [Example 5, N-α-nitrobenzenesulfonyl-L-alanyl-L-proline] | 7 h | 193 mmHg
C[C@H](NS(=O)(=O)c1ccccc1N)C(=O)N1CCC[C@H]1C(=O)O [Example 6, N-o-aminobenzenesulfonyl-L-alanyl-L-proline] | 7 h | 197 mmHg
C[C@H](NS(=O)(=O)Cc1ccccc1)C(=O)N1CCC[C@H]1C(=O)O [Example 7, N-benzylsulfonyl-L-alanyl-L-proline] | 7 h | 194 mmHg
C[C@H](NS(=O)(=O)c1ccccc1C(=O)O)C(=O)N1CCC[C@H]1C(=O)O [Example 8, N-o-carboxybenzenesulfonyl-L-alanyl-L-proline] | 7 h | 194 mmHg
O=C(O)[C@@H]1CCCN1C(=O)CNS(=O)(=O)c1ccccc1 [Example 10, N-benzenesulfonylglycyl-L-proline] | 7 h | 201 mmHg
CC(C)[C@H](NS(=O)(=O)c1ccccc1)C(=O)N1CCC[C@H]1C(=O)O [Example 11, N-benzenesulfonyl-L-valyl-L-proline] | 7 h | 203 mmHg
CC[C@H](C)[C@H](NS(=O)(=O)c1ccccc1)C(=O)N1CCC[C@H]1C(=O)O [Example 12, N-benzenesulfonyl-L-isoleucyl-L-proline] | 7 h | 191 mmHg
O=C(O)[C@@H]1CCCN1C(=O)[C@@H](NS(=O)(=O)c1ccccc1)c1ccccc1 [Example 13, N-benzenesulfonyl-L-phenylglycyl-L-proline] | 7 h | 204 mmHg
O=C(O)[C@@H]1CCCN1C(=O)[C@H](Cc1ccccc1)NS(=O)(=O)c1ccccc1 [Example 14, N-benzenesulfonyl-L-phenylalanyl-L-proline] | 7 h | 201 mmHg
CSCC[C@H](NS(=O)(=O)c1ccccc1)C(=O)N1CCC[C@H]1C(=O)O [Example 15, N-benzenesulfonyl-L-methionyl-L-proline] | 4 h | 206 mmHg
O=C(O)[C@@H]1CCCN1C(=O)[C@@H]1CCCN1S(=O)(=O)c1ccccc1 [Example 16, N-benzenesulfonyl-L-prolyl-L-proline] | 7 h | 195 mmHg
O=C(O)[C@@H]1CCCN1C(=O)[C@H](CO)NS(=O)(=O)c1ccccc1 [Example 17, N-benzenesulfonyl-L-seryl-L-proline] | 7 h | 194 mmHg
O=C(O)CC[C@H](NS(=O)(=O)c1ccccc1)C(=O)N1CCC[C@H]1C(=O)O [Example 18, N-benzenesulfonyl-L-glutamyl-L-proline] | 7 h | 189 mmHg
NCCCC[C@H](NS(=O)(=O)c1ccccc1)C(=O)N1CCC[C@H]1C(=O)O [Example 19, N^α -benzenesulfonyl-L-lysyl-L-proline] | 7 h | 191 mmHg
N-ethanesulfonyl-L-alanyl-L-proline potassium salt [Example 9] | 7 h | 213 mmHg

same assay, conditions: male, 0.05 mmole/kg once orally, lowest value minus value before administration

Molecule | ΔBlood Pressure (systolic)
2-benzenesulfonylamino isobutyryl-L-proline sodium salt [Example 21] | -17 mmHg
C[C@H](NS(=O)(=O)c1ccccc1)C(=O)N1CCC[C@H]1C(=O)O [Example 1, N-benzenesulfonyl-L-alanyl-L-proline] | -28 mmHg
Cc1cc(C)c(S(=O)(=O)N[C@@H](C)C(=O)N2CCC[C@H]2C(=O)O)c(C)c1 [Example 2, N-mesitylenesulfonyl-L-alanyl-L-proline] (Mts-Ala-Pro-OH) | -11 mmHg
Cc1ccc(S(=O)(=O)N[C@@H](C)C(=O)N2CCC[C@H]2C(=O)O)cc1 [Example 3, N-p-toluenesulfonyl-L-alanyl-L-proline] (Tos-Ala-Pro-OH) | -12 mmHg
C[C@H](NS(=O)(=O)c1cccc2ccccc12)C(=O)N1CCC[C@H]1C(=O)O [Example 4, N-α-naphthalenesulfonyl-L-alanyl-L-proline] | -13 mmHg
C[C@H](NS(=O)(=O)c1ccccc1[N+](=O)[O-])C(=O)N1CCC[C@H]1C(=O)O [Example 5, N-α-nitrobenzenesulfonyl-L-alanyl-L-proline] | -18 mmHg
C[C@H](NS(=O)(=O)c1ccccc1N)C(=O)N1CCC[C@H]1C(=O)O [Example 6, N-o-aminobenzenesulfonyl-L-alanyl-L-proline] | -35 mmHg
C[C@H](NS(=O)(=O)Cc1ccccc1)C(=O)N1CCC[C@H]1C(=O)O [Example 7, N-benzylsulfonyl-L-alanyl-L-proline] | -21 mmHg
C[C@H](NS(=O)(=O)c1ccccc1C(=O)O)C(=O)N1CCC[C@H]1C(=O)O [Example 8, N-o-carboxybenzenesulfonyl-L-alanyl-L-proline] | -9 mmHg
O=C(O)[C@@H]1CCCN1C(=O)CNS(=O)(=O)c1ccccc1 [Example 10, N-benzenesulfonylglycyl-L-proline] | -9 mmHg
CC(C)[C@H](NS(=O)(=O)c1ccccc1)C(=O)N1CCC[C@H]1C(=O)O [Example 11, N-benzenesulfonyl-L-valyl-L-proline] | -11 mmHg
CC[C@H](C)[C@H](NS(=O)(=O)c1ccccc1)C(=O)N1CCC[C@H]1C(=O)O [Example 12, N-benzenesulfonyl-L-isoleucyl-L-proline] | -21 mmHg
O=C(O)[C@@H]1CCCN1C(=O)[C@@H](NS(=O)(=O)c1ccccc1)c1ccccc1 [Example 13, N-benzenesulfonyl-L-phenylglycyl-L-proline] | -8 mmHg
O=C(O)[C@@H]1CCCN1C(=O)[C@H](Cc1ccccc1)NS(=O)(=O)c1ccccc1 [Example 14, N-benzenesulfonyl-L-phenylalanyl-L-proline] | -18 mmHg
CSCC[C@H](NS(=O)(=O)c1ccccc1)C(=O)N1CCC[C@H]1C(=O)O [Example 15, N-benzenesulfonyl-L-methionyl-L-proline] | -13 mmHg
O=C(O)[C@@H]1CCCN1C(=O)[C@@H]1CCCN1S(=O)(=O)c1ccccc1 [Example 16, N-benzenesulfonyl-L-prolyl-L-proline] | -21 mmHg
O=C(O)[C@@H]1CCCN1C(=O)[C@H](CO)NS(=O)(=O)c1ccccc1 [Example 17, N-benzenesulfonyl-L-seryl-L-proline] | -22 mmHg
O=C(O)CC[C@H](NS(=O)(=O)c1ccccc1)C(=O)N1CCC[C@H]1C(=O)O [Example 18, N-benzenesulfonyl-L-glutamyl-L-proline] | -14 mmHg
NCCCC[C@H](NS(=O)(=O)c1ccccc1)C(=O)N1CCC[C@H]1C(=O)O [Example 19, N^α -benzenesulfonyl-L-lysyl-L-proline] | -28 mmHg
N-ethanesulfonyl-L-alanyl-L-proline potassium salt [Example 9] | -5 mmHg
